Data from ChEMBL document CHEMBL3046607, “Synthesis and Herbicidal Activity of New 1-Alkyl-3-aryloxypyrazole-4-carboxamide Derivatives” (J Pestic Sci, 2004).
The source made the active and inactive calls. No cut-off for these calls is given here.

Assays:
Ammannia multiflora [1] = experiment: Post-emergence herbicidal activity against Ammannia multiflora assessed as bleaching of stem/leaf parts; assay type: functional, organism-based
Ammannia multiflora [2] = experiment: Pre-emergence herbicidal activity against Ammannia multiflora assessed as bleaching of stem/leaf parts; assay type: functional, organism-based
[3] = tested on: Schoenoplectiella juncoides; experiment: Post-emergence herbicidal activity against Schoenoplectiella juncoides assessed as bleaching of stem/leaf parts; assay type: functional, organism-based; note: test concentration or dose not given here
Rotala indica [4] = experiment: Pre-emergence herbicidal activity against Rotala indica at 33 g a.i/ha measured after 14 days; assay type: functional, organism-based
Elatine triandra [5] = experiment: Pre-emergence herbicidal activity against Elatine triandra assessed as bleaching of stem/leaf parts; assay type: functional, organism-based
[6] = tested on: Schoenoplectiella juncoides; experiment: Pre-emergence herbicidal activity against Schoenoplectiella juncoides assessed as bleaching of stem/leaf parts; assay type: functional, organism-based
Echinochloa oryzicola [7] = experiment: Post-emergence herbicidal activity against Echinochloa oryzicola assessed as bleaching of stem/leaf parts; assay type: functional, organism-based
Cyperus difformis [8] = experiment: Pre-emergence herbicidal activity against Cyperus difformis at 33 g a.i/ha measured after 14 days; assay type: functional, organism-based
Pontederia vaginalis [9] = experiment: Post-emergence herbicidal activity against Monochoria vaginalis assessed as bleaching of stem/leaf parts; assay type: functional, organism-based
Elatine triandra [10] = experiment: Post-emergence herbicidal activity against Elatine triandra assessed as bleaching of stem/leaf parts; assay type: functional, organism-based; note: test concentration or dose not given here
[11] = tested on: Schoenoplectiella juncoides; experiment: Pre-emergence herbicidal activity against Schoenoplectiella juncoides at 33 g a.i/ha measured after 14 days; assay type: functional, organism-based
Ammannia multiflora [12] = experiment: Pre-emergence herbicidal activity against Ammannia multiflora at 33 g a.i/ha measured after 14 days; assay type: functional, organism-based
Cyperus difformis [13] = experiment: Pre-emergence herbicidal activity against Cyperus difformis assessed as bleaching of stem/leaf parts; assay type: functional, organism-based
Lindernia procumbens [14] = experiment: Pre-emergence herbicidal activity against Lindernia procumbens at 33 g a.i/ha measured after 14 days; assay type: functional, organism-based
Echinochloa oryzicola [15] = experiment: Pre-emergence herbicidal activity against Echinochloa oryzicola at 33 g a.i/ha measured after 14 days; assay type: functional, organism-based
Cyperus difformis [16] = experiment: Post-emergence herbicidal activity against Cyperus difformis assessed as bleaching of stem/leaf parts; assay type: functional, organism-based; note: test concentration or dose not given here
Lindernia procumbens [17] = experiment: Post-emergence herbicidal activity against Lindernia procumbens assessed as bleaching of stem/leaf parts; assay type: functional, organism-based; note: test concentration or dose not given here
Oryza sativa = experiment: Phytotoxicity against Oryza sativa cv. Koshihikari (rice) at 33 g a.i/ha measured after 14 days; assay type: organism-based; conditions: in vivo, 336 h
Rotala indica [18] = experiment: Pre-emergence herbicidal activity against Rotala indica assessed as bleaching of stem/leaf parts; assay type: functional, organism-based
Lindernia procumbens [19] = experiment: Pre-emergence herbicidal activity against Lindernia procumbens assessed as bleaching of stem/leaf parts; assay type: functional, organism-based
Rotala indica [20] = experiment: Post-emergence herbicidal activity against Rotala indica assessed as bleaching of stem/leaf parts; assay type: functional, organism-based
Echinochloa oryzicola [21] = experiment: Pre-emergence herbicidal activity against Echinochloa oryzicola assessed as bleaching of stem/leaf parts; assay type: functional, organism-based
Elatine triandra [22] = experiment: Pre-emergence herbicidal activity against Elatine triandra at 33 g a.i/ha measured after 14 days; assay type: functional, organism-based
Pontederia vaginalis [23] = experiment: Pre-emergence herbicidal activity against Monochoria vaginalis at 33 g a.i/ha measured after 14 days; assay type: functional, organism-based
Pontederia vaginalis [24] = experiment: Pre-emergence herbicidal activity against Monochoria vaginalis assessed as bleaching of stem/leaf parts; assay type: functional, organism-based

SMILES | Activity (Ammannia multiflora [1]) | Activity (Ammannia multiflora [2]) | Activity [3] | Activity (Rotala indica [4]) | Activity (Elatine triandra [5]) | Activity [6] | Activity (Echinochloa oryzicola [7]) | Activity (Pontederia vaginalis [9]) | Activity (Elatine triandra [10]) | Activity [11] | Activity (Ammannia multiflora [12]) | Activity (Cyperus difformis [13]) | Activity (Lindernia procumbens [14]) | Activity (Echinochloa oryzicola [15]) | Activity (Cyperus difformis [16]) | Activity (Lindernia procumbens [17]) | Activity (Oryza sativa) | Activity (Rotala indica [18]) | Activity (Lindernia procumbens [19]) | Activity (Rotala indica [20]) | further results
Cn1cc(C(=O)Nc2ccc(F)cc2)c(Oc2cccc(C(F)(F)F)c2)n1 | Active | Active | Active | Active | Active | Active | Active | Active | Active | inactive | Active | Active | Active | Active | Active | Active | Non-toxic | Active | Active | Active | Activity (Cyperus difformis [8]): Active; Activity (Echinochloa oryzicola [21]): Active; Activity (Elatine triandra [22]): Active; Activity (Pontederia vaginalis [23]): Active; Activity (Pontederia vaginalis [24]): Active
Cc1ccccc1NC(=O)c1cn(C)nc1Oc1cccc(C(F)(F)F)c1 | Active | Active | Active | Active | Active | Active | Active | Active | Active | inactive | Active | Active | Active | inactive | Active | Active | Non-toxic | Active | Active | Active | Activity (Cyperus difformis [8]): Active; Activity (Echinochloa oryzicola [21]): Active; Activity (Elatine triandra [22]): Active; Activity (Pontederia vaginalis [23]): Active; Activity (Pontederia vaginalis [24]): Active
Cn1cc(C(=O)Nc2ccccc2F)c(Oc2cccc(C(F)(F)F)c2)n1 | Active | Active | Active | Active | Active | Active | Active | Active | Active | inactive | Active | Active | Active | Active | Active | Active | Non-toxic | Active | Active | Active | Activity (Cyperus difformis [8]): Active; Activity (Echinochloa oryzicola [21]): Active; Activity (Elatine triandra [22]): Active; Activity (Pontederia vaginalis [23]): Active; Activity (Pontederia vaginalis [24]): Active
Cn1cc(C(=O)Nc2ccc(F)cc2F)c(Oc2ccc(Br)c(C(F)(F)F)c2)n1 | Active | Active | Active | Active | Active | Active | Active | Active | Active | inactive | Active | Active | Active | inactive | Active | Active | Non-toxic | Active | Active | Active | Activity (Cyperus difformis [8]): Active; Activity (Echinochloa oryzicola [21]): Active; Activity (Elatine triandra [22]): Active; Activity (Pontederia vaginalis [23]): Active; Activity (Pontederia vaginalis [24]): Active
Cn1cc(C(=O)Nc2ccc(Cl)cc2F)c(Oc2cccc(C(F)(F)F)c2)n1 | Active | Active | Active | Active | Active | Active | Active | Active | Active | inactive | Active | Active | Active | inactive | Active | Active | Non-toxic | Active | Active | Active | Activity (Cyperus difformis [8]): Active; Activity (Echinochloa oryzicola [21]): Active; Activity (Elatine triandra [22]): Active; Activity (Pontederia vaginalis [23]): Active; Activity (Pontederia vaginalis [24]): Active
CCCCn1cc(C(=O)Nc2ccc(F)cc2F)c(Oc2cccc(C(F)(F)F)c2)n1 | Active | Active | Active | inactive | Active | Active | Active | Active | Active | inactive | inactive | Active | inactive | inactive | Active | Active | Non-toxic | Active | Active | Active | Activity (Cyperus difformis [8]): inactive; Activity (Echinochloa oryzicola [21]): Active; Activity (Elatine triandra [22]): inactive; Activity (Pontederia vaginalis [23]): inactive; Activity (Pontederia vaginalis [24]): Active
Cn1cc(C(=O)Nc2ccc(F)c(F)c2F)c(Oc2cccc(C(F)(F)F)c2)n1 | Active | Active | Active | Active | Active | Active | Active | Active | Active | Active | Active | Active | Active | Active | Active | Active | Non-toxic | Active | Active | Active | Activity (Echinochloa oryzicola [21]): Active; Activity (Elatine triandra [22]): Active; Activity (Pontederia vaginalis [23]): Active; Activity (Pontederia vaginalis [24]): Active
